In assay [1] the test system is kaolin-induced abdominal irritant response. Description: Graded Abdominal Irritant Test (GrAIT). Format: in vivo. As to conditions: po; for % Inhibition: 30 minutes before kaolin 100 mg/kg i.p., dose not given; for ED50: read-out: ED50 (μmol/Kg, p.o.). The method, then:
Graded Abdominal Irritant Test The […] Abdominal Irritant Test (GrAIT) is a modification of the methods described by Koster et al. (Koster R., Anderson M and DeBeer E. J. Fed. Proc. 1959, 18, 412). Prior to the test (30 minutes for oral or subcutaneous administration), each animal was administered a known analgesic, a test compound, or vehicle (0.05N HCl) by one of two routes (oral or subcutaneous). Kaolin (100 mg/kg) was injected intraperitoneally (using a standard 23G needle) at a volume of 10 mL/kg of body weight. Following the administration of the chemical agent, the animals were placed in glass bell jars (approximately 15 cm in diameter with wood chips on the bottom). […] A contraction of the abdominal musculature and an elongation of the body, which extends through to the hindlimbs, characterize this response. The responses were counted during the 15-minute period after the injection of the kaolin. A mechanical counter or a personal computer was used to collect the number of counts per animal, and animals were observed no more than 5 at a time. The mean number of counts (±SEM) for a group of animals receiving a known analgesic or test compound was compared to the mean for the group of animals which received only vehicle pretreatment (Control group). For each dose, % inhibition of the response was calculated. For each test compound, the ED50 value was calculated using a log dose regression analysis program (PharmTools software).

The target of assay [2] is T1, human B2 bradykinin receptors (CHO-hB2 cell membranes) (Homo sapiens, UniProt P30411).
T1 construct: purchased Receptor Biology, Inc. (Baltimore, Md.); host or cells: CHO-hB2 cells (membranes)
T1 sequence (P30411 1-391): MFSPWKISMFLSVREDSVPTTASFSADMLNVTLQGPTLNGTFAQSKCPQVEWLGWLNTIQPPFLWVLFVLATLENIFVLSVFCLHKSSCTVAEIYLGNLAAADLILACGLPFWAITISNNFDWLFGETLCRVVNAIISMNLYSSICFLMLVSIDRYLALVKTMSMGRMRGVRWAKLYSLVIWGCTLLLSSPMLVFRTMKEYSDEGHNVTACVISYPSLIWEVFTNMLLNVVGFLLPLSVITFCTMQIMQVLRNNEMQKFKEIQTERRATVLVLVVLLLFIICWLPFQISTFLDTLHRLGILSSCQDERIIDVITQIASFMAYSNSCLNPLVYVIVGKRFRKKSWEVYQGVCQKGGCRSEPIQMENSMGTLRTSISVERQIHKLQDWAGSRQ
Description: [35S]GTPγS Binding Assay in CHO-hB2 Cell Membranes. The conditions noted are these: bradykinin-stimulated [35S]GTPγS binding; for Functional Activity (% Basal): number in parentheses, concentration not given. Type of assay: biochemical. As for the experimental part: [^35S]GTPγS Binding Assay in CHO-hB2Cell Membranes
CHO-hB2 cell membranes were purchased from Receptor Biology, Inc. (Baltimore, Md.). 10 mg/mL of membrane protein was suspended in 10 mM TRIS-HC pH 7.2, 2 mM EDTA, 10% sucrose.
Membranes were added into 15 mL ice cold binding assay buffer. The assay buffer contained 50 mM HEPES, pH 7.6, 5 mM MgCl2, 100 mM NaCl, 1 mM DTT and 1 mM EDTA. The membrane suspension was homogenized twice with a Polytron and centrifuged at 3000 rpm for 10 min. The supernatant was then centrifuged at 18,000 rpm for 20 min. The pellet was saved in a tube and resuspended.
The pellet membranes (40 μg/mL) were preincubated with SPA (scintillation proximity assay) beads (20 mg/mL) at 25 C. ° for 45 min in the assay buffer. The SPA beads (5 mg/mL) coupled with membranes (10 μg/mL) were then incubated with 0.5 nM [^35S]GTPγS in the same HEPES buffer containing 50 μM GDP in total volume of 200 μL. Bradykinin was used to stimulate [^35S]GTPγS binding. Varying concentrations of drugs were incubated with bradykinin to inhibit bradykinin-stimulated [^35S]GTPγS binding. The basal binding was tested in the absence of bradykinin and no specific binding was tested in the present 10 μM unlabeled GTPγS. The radioactivity was quantified on a Packard Top Count, and calculated.
% of Basal=(stimulated binding−non specific binding)/(basal binding−non specific binding)×100.
(In general: GTPγS resists hydrolysis and so accumulates on activated G proteins.)

Usually % Inhibition stands for the drop in the measured response relative to a control, in per cent. Read a high % Inhibition as strong suppression.

Consider `Cc1ccc2cccc(OCc3c(C)ccc(N(C)C(=O)Cc4ccc(C(=O)c5cnccc5Cl)n4C)c3C)c2n1` [Compound 77, 2-[5-(4-Chloro-pyridine-3-carbonyl)-1-methyl-1H-pyrrol-2-yl]-N-[2,4-dimethyl-3-(2-methyl-quinolin-8-yloxymethyl)-phenyl]-N-methyl-acetamide], for which, in assay [1], the “% Inhibition” value was 70% and the ED50 is 80.9 µmol/kg. In assay [2], the “Functional Activity (word result)” value is recorded as “Antagonist” and the “Functional Activity (% Basal)” value is recorded as 62 % Basal.
`Cc1ccc2cccc(OCc3c(C)ccc(N(C)C(=O)Cc4ccc(C(=O)c5cnccc5C#N)n4C)c3C)c2n1` [Compound 78, 2-[5-(4-Cyano-pyridine-3-carbonyl)-1-methyl-1H-pyrrol-2-yl]-N-[2,4-dimethyl-3-(2-methyl-quinolin-8-yloxymethyl)-phenyl]-N-methyl-acetamide]: in assay [1], the “% Inhibition” value is 82% and the ED50 was found to be 114 µmol/kg. In assay [2], the “Functional Activity (word result)” value was “Antagonist” and the “Functional Activity (% Basal)” value turned out to be 83 % Basal.
With `Cc1ccc2cccc(OCc3c(Cl)ccc(N(C)C(=O)CCc4ccc(C(=O)c5cnccc5Cl)n4C)c3Cl)c2n1` [Compound 89, 3-[5-(4-Chloro-pyridine-3-carbonyl)-1-methyl-1H-pyrrol-2-yl]-N-[2,4-dichloro-3-(2-methyl-quinolin-8-yloxymethyl)-phenyl]-N-methyl-propionamide], in assay [1], the “% Inhibition” value is listed as 98% and the ED50 amounted to 22.5 µmol/kg. For the same compound, in assay [2], the “Functional Activity (word result)” value is recorded as “Antagonist” and the “Functional Activity (% Basal)” value is recorded as 51 % Basal.

The values above are taken from patent US20040192720A1, “Novel heteroaryl alkylamide derivatives useful as bradykinin receptor modulators” (priority 2003, published 2004).
